Laboratory results reported in patent US10662214B2, “Compound of 4′-thionucleoside, as well as preparation method therefor, pharmaceutical composition thereof and application thereof” (Sichuan Kelun-Biotech Biopharmaceutical Co., Ltd., priority 2015, dated 2020).

Experiments:
[1] = tested on: human pancreatic cancer cell BxPC-3; assay: Subcutaneous xenograft of human pancreatic cancer cell BxPC-3 in a nude mouse (Experimental example 4); assay type: in vivo
Description: According to methods similar to those in sections 1 to 3 in Experimental example 2, pancreatic cancer cell BxPC-3 was cultured as a monolayer in vitro, and inoculated; the animals were randomized into groups; and samples were prepared.
Mice bearing a tumor having a volume of 80-250 mm^3 were selected, and randomized into 6 groups (8 mice per group). The dosing volume was 10 mL/kg.
(§1) For statistical calculations of the test indexes, please refer to Experimental example 2.
The test results obtained by administrating (intravenous administration (i.v.) or oral administration (p.o.)) once a week for 3 weeks are shown in table 7-2.

[2] = tested on: human pancreatic cancer cell Capan-1; assay: Subcutaneous xenograft of human pancreatic cancer cell Capan-1 in a nude mouse (Experimental example 5); assay type: in vivo; details: once every 3 days, 6 times
Description: According to methods similar to those in sections 1 to 2 in Experimental example 2, pancreatic cancer cell Capan-1 was cultured as a monolayer in vitro, and inoculated, and the animals were randomized into groups.
Samples were prepared as described in Experimental example 2.
Mice bearing a tumor having a volume of 100-200 mm^3 were selected, and randomized into 7 groups (7 mice per group).
as §1

[3] = tested on: gastric cancer cell NCI-N87; assay: Subcutaneous xenograft of gastric cancer cell NCI-N87 in nude mice (Experimental example 2); assay type: in vivo; details: 190 μmol/kg i.v.
Description: (§2) This experimental example was used for the evaluation of the effectiveness of the compounds of the present invention in inhibiting the proliferation of a subcutaneous xenograft of human tumor cells via various routes of administration.
(§3) Gastric cancer cell NCI-N87 and colorectal cancer cell HCT-116 were cultured as a monolayer in vitro, and the culture conditions were RPMI-1640 culture medium supplemented with 10% heat inactivated Fetal Bovine Serum, and incubation in an incubator at 37° C. and 5% CO2. The cells were subcultured by treatment with trypsin-EDTA digestion.
(§4) The tumor cells were respectively inoculated into BALB/c nude mice (SPF grade, female, 16-18 g per mouse, about 6 to 8 weeks old, Beijing Vital River Laboratory Animal Technology Co., Ltd.).
(§5) Each nude mouse was inoculated with about 2.5×10^6 HCT-116 tumor cells or about 3×10^6 NCI-N87 tumor cells (suspended in 0.1 ml PBS) subcutaneously into the underarm of the right flank. After the inoculated tumor reached a size in the range of about 100-200 mm^3, nude mice bearing a tumor that is too small (smaller than 100 mm^3) or too big (bigger than 200 mm^3) were removed from the study, and the remaining ones were randomized into groups.
(§6) Sulfobutyl ether-β-cyclodextrin (SE-β-CD) was formulated with physiological saline to form a 10% solution, which was then filtered through a 0.22 μm sterile filter for later use.
(§7) An appropriate amount of the test compound was weighted, and added in DMSO. The resultant solution was vortexed to uniformity, and the 10% solution of SE-β-CD was added according to the desired concentration. The solution was vortexed to uniformity, and the final concentration of DMSO was adjusted to 5%. A gemcitabine injection (a positive control) was directly diluted to the desired concentration with physiological saline. A 10% solution of SE-β-CD containing 5% DMSO was prepared as a vehicle control.
(§8) Mice bearing a tumor having a volume of about 100-200 mm^3 were selected, and randomized into 5 groups (8 mice per group). The dosing volume was 10 mL/kg, and the administration (intravenous administration (i.v.) or oral administration (p.o.)) was performed twice a week for 3 weeks. The tumor volume and body weight were measured twice a week after the administration, and the mortality of animals was observed every day.
(§9) The diameter of a tumor was measured, and the tumor volume was calculated according to the following formula: V=0.5a×b^2, wherein a and b respectively represent the major and minor diameters of a tumor. The anti-tumor effect was evaluated by the tumor growth inhibition (TGI) (%). TGI (%)=[1−(VT-end−VT-start)/(VC-end−VC-start)]*100%
(§10) The body weight of an animal was measured twice a week.

[4] = tested on: colorectal cancer cell HCT-116; assay: Subcutaneous xenograft of colorectal cancer cell HCT-116 in nude mice (Experimental example 2); details: 190 μmol/kg i.v.
Description: as §2, §3, §4, §5, §6, §7, §8, §9, §10

[5] = tested on: human pancreatic cancer cell BxPC-3; assay: Subcutaneous xenograft of human pancreatic cancer cell BxPC-3 in a nude mouse (Experimental example 3); assay type: in vivo; details: once every 3 days, 4 times
Description: According to methods similar to those in sections 1 to 2 in Experimental example 2, pancreatic cancer cell BxPC-3 was cultured as a monolayer in vitro, and inoculated, and the animals were randomized into groups.
An appropriate amount of the test compound was weighted out, and added in DMSO. The 10% solution of SE-β-CD was then added according to the desired concentration, and the final concentration of DMSO was adjusted to 2.5%. A gemcitabine injection (a positive control) was diluted to the desired concentration with physiological saline. A 10% solution of SE-β-CD containing 2.5% DMSO was prepared as a vehicle control.
Mice bearing a tumor having a volume of 100-200 mm^3 were selected, and randomized into 14 groups (7 mice per group). The dosing volume was 20 mL/kg, and the administration (intravenous administration (i.v.)) was performed once every 3 days, for 4 times in total.
as §1

[6] = mice, significant dose administered intravenously; cited from earlier work
[7] = tested on: human pancreatic cancer cell PANC-1; assay: Subcutaneous xenograft of human pancreatic cancer cell PANC-1 in a nude mouse (Experimental example 6); assay type: in vivo; details: 0.06 mmol/kg i.v., once every 3 days, 6 times
Description: This test was performed according to experimental example 5.
Mice bearing a tumor having a volume of 100-200 mm^3 were selected, and randomized into 4 groups (6 mice per group).

For Nc1ccn([C@@H]2O[C@H](CO)[C@@H](O)C2(F)F)c(=O)n1 [Gemcitabine injection, Gemcitabine, reference compound], the “TGI (%)” value ([1]; 0.12 mmol/kg i.v., twice a week for 3 weeks) was 23.6%, the “TGI (%)” value ([1]; 0.23 mmol/kg i.v., once a week for 3 weeks) was 23.6% and the “TGI (%)” value ([2]; 0.02 mmol/kg i.v.) was 15.4%. For the same compound, the “TGI (%)” value ([2]; 0.19 mmol/kg i.v.) was 78.9%, the “TGI (%)” value ([3]; twice a week for 3 weeks) was 107% and the “Tumor regression, CR (complete tumor regression)” value ([3]; animals out of 8) was 2/8 CR,. For the same compound, the “Tumor regression, PR (partial tumor regression)” value ([3]; animals out of 8) was 6/8 PR, the Mortality [4] was 0 and the “TGI (%)” value ([4]; twice a week for 3 weeks) was 92%. The Tumor regression ([4]; 14 days after last administration) was 0, the “TGI (%)” value ([5]; 0.04 mmol/kg i.v.) was −2.2% and the “TGI (%)” value ([5]; 0.12 mmol/kg i.v.) was 28.9%. For the same compound, the “TGI (%)” value ([5]; 0.24 mmol/kg i.v.) was 45.5%, the “death or gastrointestinal toxicity after intravenous dosing” value [6] was “no death or gastrointestinal toxicity” and the “TGI (%)” value [7] was 64.4%.
